Here are results for 6 molecules from US12577270B2, “2′,3′-diacetyluridine substituted with acetoacetyl at the 5′ position” (PHARMA CINQ, LLC, priority 2020, dated 2026).

Like-named read-outs stand apart in the source and are kept apart here. Some results are limits rather than exact numbers.

Data set [1] in a line: Plasma uridine and [uridine+uracil] in mice after oral administration of uridine prodrugs (Example 4). In kind it is in vivo, Female CD-1 mice. As to conditions: for systemic uridine delivery after oral administration: oral gavage, dose equimolar to 600 mg/Kg UTA, result in words. From the text:
Chemical(s): HPMC (Hydroxypropyl)methyl cellulose (SIGMA-Aldrich: cat #H3785, CAS 9004-65-3); uridine triacetate (2′,3′,5′-tri-O-acetyluridine): UTA, Item Code D000156, Lot #Q000001095, made by Almac Sciences; 2′,3′,5′-tri-O-(acetoacetyl)uridine: Tri-AcAcU; 5′-O-(acetoacetyl)-2′,3′-di-O-acetyluridine: AcAcDAU; 2′,3′-di-O-acetyl-5′-O-heptanoyluridine: DA-HU. (Note: the AcAcDAU used in this experiment was the mixture of 9.4 parts 5′-O-(acetoacetyl)-2′,3′-di-O-acetyluridine and 1 part a combination of 5′-O-(acetoacetyl)-2′-O-acetyl-3′-O-formyluridine and 5′-O-(acetoacetyl)-3′-O-acetyl-2′-O-formyluridine from Example 1 above.)
(§1) Vehicle: Aqueous HPMC was used as a vehicle for oral administration of the uridine derivatives.
Dosing Formulation: UTA and other uridine derivatives were prepared in 0.75% HPMC. UTA and other uridine derivatives were added to 0.75% HPMC and homogenized to eliminate clumps. The suspension were made up to the desired volume and concentration and sonicated to disaggregate any small leftover clumps into fine particles. Suspensions were stored at 4° C. until use. Suspensions were used within 24 hrs of preparation.
Dosing: Mice received a dose of 600 mg/Kg UTA gavaged at 0.02 ml/g body weight. Other uridine derivatives were dosed in the same manner at concentrations containing amounts of uridine equimolar to UTA.
Animals: Female CD-1 mice.
The general initial layout for the experiment involved gavaging groups of 6 mice with uridine derivatives and obtaining blood samples at several times points thereafter (3 mice were bled for 2 time points (15 and 60 minutes), and another 3 mice were bled for the other 2 time points (30 and 120 minutes). Each experiment included an HPMC (vehicle only) time point with 3 mice to establish a baseline for blood uridine.
Blood samples were collected into plasma separation tubes, which were centrifuged immediately after blood collection, and aliquots of plasma were frozen for subsequent processing. Plasma was later deproteinated, and uridine and uracil were quantified by liquid chromatography using UV absorbance detection and mass spectrometry.
Delivery of uridine into the bloodstream was assessed by monitoring plasma uridine and the sum of uridine and uracil [uridine+uracil], as uracil is the first product in enzymatic degradation of uridine. Mice convert administered uridine to uracil more rapidly and extensively than do humans.

The nature of data set [2]: Plasma uridine, uracil and beta-hydroxybutyrate in mice after oral administration of AcAcDAU (Example 5). As to conditions: 2350 mg/Kg oral, 15-120 min, result in words. In kind it is in vivo, Female CD-1 mice.
Description: An important feature of 5′-O-(acetoacetyl)-2′,3′-di-O-acetyluridine (AcAcDAU) is that it yields simultaneous or concurrent delivery of both uridine and acetoacetate via a single drug molecule. Acetoacetate in plasma is in equilibrium with beta-hydroxybutyrate (BHB) mirroring free NADH/NAD+ ratios in hepatic mitochondria, and heavily favoring BHB as the more prevalent of the two ketone bodies under normal physiological conditions. Moreover, BHB is stable after blood sampling and processing, whereas acetoacetate is labile. Therefore, plasma BHB was measured along with plasma uridine in mice receiving oral AcAcDAU.
Chemical(s): HPMC (Hydroxypropyl) methyl cellulose (SIGMA-Aldrich: cat #H3785, CAS 9004-65-3), 5′-O-(acetoacetyl)-2′,3′-di-O-acetyluridine (AcAcDAU; lot #432168B). This experiment used the AcAcDAU from Example 2.
as §1
Dosing Formulation: UTA and other uridine derivatives were prepared in 0.75% HPMC. AcAcDAU was added to 0.75% HPMC and homogenized to eliminate clumps. The suspensions were made up to the desired volume and concentration and sonicated to disaggregate any small leftover clumps into fine particles. Suspensions were stored at 4° C. until use. Suspensions were used within 24 hrs of preparation.
Dosing: Mice received a dose of 2350 mg/Kg AcAcDAU gavaged at 0.02 ml/g body weight. Control mice received only the 0.75% HPMC vehicle
General Experimental Design: The general layout for the experiment involved gavaging mice with AcAcDAU and obtaining blood samples at several time points thereafter (see table below for details). The experiment included a group with 2 mice gavaged with HPMC only and bled at 60 and 120 min for determination of baseline plasma uridine.
Mice received 0.02 ml/g bodyweight of a suspension (0.75% hydroxypropylmethylcellulose in water) with a concentration of AcAcDAU of 117 mg/ml for a dose of 2,350 mg/Kg body weight. […]

Data set [3] has as its system mice receiving 60 mg/kg/day 3-nitropropionic acid (progressive lethal mitochondrial energy failure). Briefly: Protection against mortality caused by 3-nitropropionic acid (Example 6, 11 day study). In kind it is in vivo, Female CD-1 mice. As to conditions: for Median Survival / % Survival: 3-NP 60 mg/kg/day ip, UTA 1000 mg/kg b.i.d. or AcAcDAU 1113.5 mg/kg b.i.d. oral; for survival time versus vehicle alone: UTA 1000 mg/kg or AcAcDAU 1113.5 mg/kg b.i.d.; for % Survival: end of 11 day study. The method, then: 5′-O-acetoacetyl-2′,3′-di-O-acetyluridine (AcAcDAU) delivers both uridine and acetoacetate (and beta-hydroxybutyrate [BHB] derived from acetoacetate) into the circulation after oral administration. A study was designed to compare relative efficacy of UTA versus AcAcDAU in a model of progressive lethal mitochondrial energy failure. Mitochondrial dysfunction was produced by daily administration of 3-nitropropionic acid (3-NP; 60 mg/kg/day) by intraperitoneal injection. 3-NP is an irreversible inhibitor of succinate dehydrogenase (Complex II of the mitochondrial electron transport chain). Daily dosing with 3-NP results in progressive diminution of mitochondrial capacity to maintain ATP production, eventually resulting in mortality from both neurodegeneration and cardiomyopathy.
Female CD-1 mice at approximately 16 weeks of age were divided into weight-matched groups of 10 mice each. All mice received daily intraperitoneal injections of 3-NP (60 mg/kg) in a volume of 0.01 ml per gram of body weight.
In addition to daily injections of 3-NP, the three groups of mice received 1) Vehicle; 2) UTA; or 3) AcAcDAU. This experiment used the AcAcDAU from Example 2. These treatments were administered orally, by gavage, in a volume of 0.02 ml per gram of body weight.
• 1. Vehicle Control (0.75% HPMC; hydroxypropylmethylcellulose) • 2. Uridine triacetate 1000 mg/kg BID (suspended in 0.75% HPMC) • 3. AcAcDAU 1113.5 mg/kg (molar equivalent to 1000 mg/kg UTA) BID (dissolved in 0.75% HPMC)
(§2) Body weights were recorded each day to adjust drug doses as mice lost weight during repeated treatment with 3-NP.
Survival times (median survival; the time point at which 50% of animals in a group had died) and percent survival at the end of the 11 day study were used to quantify and compare protective effects of the test agents.

In data set [4] the test system is mice receiving 60 mg/kg/day 3-nitropropionic acid (progressive mitochondrial failure). As to the kind of experiment: Protection against mortality due to 3-nitropropionic acid, higher doses (Example 7, 10 day study). As to conditions: for survival time versus vehicle alone: UTA 2000 mg/kg or AcAcDAU 2227 mg/kg b.i.d.; for % Survival: end of 10 day study, 3-NP 60 mg/kg/day ip, UTA 2000 mg/kg b.i.d. or AcAcDAU 2227 mg/kg b.i.d. oral. In kind it is in vivo. The method, then: In this example the effect of higher doses of UTA (2000 mg/kg/dose) versus equimolar AcAcDAU (2227 mg/kg/dose) were compared in the same model system.
• 1. Vehicle Control (0.75% HPMC; hydroxypropylmethylcellulose) • 2. Uridine triacetate 2000 mg/kg BID (suspended in 0.75% HPMC)
AcAcDAU 2227 mg/kg (molar equivalent to 2000 mg/kg UTA) BID (dissolved in 0.75% HPMC). This experiment used the AcAcDAU from Example 2. The treatment schedule was as follows:
as §2
Percent survival of mice in each group of 10 mice at the end of the 10 day study were used to quantify and compare protective effects of the test agents.

For data set [5] the following is noted: humans; cited from earlier work.
The conditions of data set [6]: mice; cited from earlier work.

As for `CC(=O)CC(=O)OC[C@H]1O[C@@H](n2ccc(=O)[nH]c2=O)[C@H](OC(C)=O)[C@@H]1OC(C)=O` [AcAcDAU, 5′-O-(acetoacetyl)-2′,3′-di-O-acetyluridine], the “delivery of uridine and uridine catabolites ([uridine+uracil]) into the circulation compared with equimolar uridine triacetate” value in data set [1] (oral, equimolar to 600 mg/Kg UTA, AcAcDAU was the 9.4:1 mixture from Example 1, result in words) is “more”. Besides, in data set [2], the “Plasma beta-hydroxybutyrate after oral administration” value is on record as “elevated”, the “Plasma uracil after oral administration” value is “elevated” and the “Plasma uridine after oral administration” value is recorded as “elevated”. In data set [3], the “Median Survival” value is over 11 days and the “% Survival” value is recorded as 50% (2/10). The “median survival time compared with UTA” value in data set [3] (AcAcDAU 1113.5 mg/kg b.i.d. vs equimolar UTA, result in words) is “longer”. Further, the “survival time versus vehicle alone” value in data set [3] (result in words) is “improved survival time”. In addition, the “survival at the 10 day time point compared with equimolar UTA” value in data set [4] (AcAcDAU 2227 mg/kg b.i.d. vs UTA 2000 mg/kg b.i.d., result in words) was “better survival”. The “survival time versus vehicle alone” value in data set [4] (result in words) is “improved survival time”. For the same molecule, the “% Survival” value in data set [4] is given as 100% (10/10).
As for `CC(=O)CC(=O)OC[C@H]1O[C@@H](n2ccc(=O)[nH]c2=O)[C@H](O)[C@@H]1O` [AcAcU, 5′-O-(acetoacetyl)uridine], in data set [1], the “systemic uridine delivery after oral administration” value (“systemic uridine delivery” below) was “delivered little uridine”.
Turning to `CCCCCCC(=O)OC[C@H]1O[C@@H](n2ccc(=O)[nH]c2=O)[C@H](OC(C)=O)[C@@H]1OC(C)=O` [DA-HU, 2′,3′-di-O-acetyl-5′-O-heptanoyluridine, reference compound], in data set [1], the “systemic uridine delivery” value is “relatively poor”.
Turning to `CC(=O)CC(=O)OC[C@H]1O[C@@H](n2ccc(=O)[nH]c2=O)[C@H](OC(=O)CC(C)=O)[C@@H]1OC(=O)CC(C)=O` [Tri-AcAcU, 2′,3′,5′-tri-O-(acetoacetyl)uridine, reference compound], the “systemic uridine delivery” value in data set [1] was “relatively poor”.
As for `CC(=O)OC[C@H]1O[C@@H](n2ccc(=O)[nH]c2=O)[C@H](OC(C)=O)[C@@H]1OC(C)=O` [UTA, 2′,3′,5′-tri-O-acetyluridine, reference compound], the “Median Survival” value in data set [3] was determined as 7 days. Besides, the “survival time versus vehicle alone” value in data set [3] (result in words) and in data set [4] (result in words) was “improved survival time” in each case. The “% Survival” value in data set [3] is 30% (5/10); in data set [4], 70% (7/10).
For `O=c1ccn([C@@H]2O[C@H](CO)[C@@H](O)[C@H]2O)c(=O)[nH]1` [uridine], the “bioavailability (oral delivery)” value in data set [5] and in data set [6] was “approximately 7%” in each case.
